# Laboratory results: PubChem BioAssay AID1963440 (Molecular Pharmacology Branch, DTP, NCI, 2024)
# “And” between values parts separate entries of the source, which are not always exact repeats. Equal values may be shown once.
# System: NCI-H1417 complex spheroids, growth % test/control
# Test: Anticancer human tumor NCI-H1417 cell line growth inhibition [Asc];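 also: spheroids exposed to compounds for 7 days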;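 as to viability, T/C: 100% = DMSO vehicle control wells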
# Conditions: for viability, T/C: stronger effect = lower value
# Method in brief: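 Concentration series start at each agent's clinical Cmax, or at 10 microM when none is established, and drop in half-log steps; agents are applied alone or together to complex spheroids built with HUVEC and hMSC.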
smiles,measurement,setting,value
NC(=O)C(=Cn1cnc(-c2cc(C(F)(F)F)cc(C(F)(F)F)c2)n1)c1cncnc1,"viability, T/C",compound 0.000949 µM,98.9% and 102% and 99.9%
same,"viability, T/C",compound 0.003 µM,99.9% and 106% and 107%
same,"viability, T/C",compound 0.00949 µM,89.7% and 96.8% and 104%
same,"viability, T/C",compound 0.03 µM,93% and 97.1% and 94.3%
same,"viability, T/C",compound 0.0949 µM,79.8% and 61.8% and 85.1%
same,"viability, T/C",compound 0.3 µM,25.3% and 22.2% and 44.6%
same,IC50,curve of compound,178 nM and 134 nM and 259 nM
Cc1nc(N2CCC3(CC2)COC(C)C3N)c(CO)nc1Sc1ccnc(N)c1Cl (centres undefined),"viability, T/C",compound 0.00949 µM,83.4% and 92.6% and 92.5%
same,"viability, T/C",compound 0.03 µM,82.8% and 102% and 101%
same,"viability, T/C",compound 0.0949 µM,104% and 101% and 77.7%
same,"viability, T/C",compound 0.3 µM,112% and 84.2% and 93%
same,"viability, T/C",compound 0.949 µM,101% and 84% and 83.2%
same,"viability, T/C",compound 3 µM,76.5% and 70.5% and 76.4%
same,IC50,curve of compound,> 3000 nM
C=C(F)C(=O)N1CCN(c2nc(OCC3CCCN3C)nc3c2CCN(c2cccc4cccc(Cl)c24)C3)CC1CC#N (centres undefined) + CCN1C(C(=O)NC23CCC(C(=O)O)(CC2)CC3)C(c2cccc(Cl)c2F)C2(C(=O)Nc3cc(Cl)ccc32)C12CCCCC2,IC50,"curve of first compound, second compound 0.03 µM",3580 nM
same,IC50,"curve of first compound, second compound 0.0949 µM",3250 nM
same,IC50,"curve of first compound, second compound 0.3 µM",3330 nM
same,IC50,"curve of first compound, second compound 0.949 µM",2770 nM
same,IC50,"curve of first compound, second compound 3 µM",2250 nM
same,"viability, T/C","second compound 0.03 µM, first compound 0.0316 µM",107%
same,"viability, T/C","second compound 0.03 µM, first compound 0.1 µM",111%
same,"viability, T/C","second compound 0.03 µM, first compound 0.316 µM",102%
same,"viability, T/C","second compound 0.03 µM, first compound 1 µM",95.4%
same,"viability, T/C","second compound 0.03 µM, first compound 3.16 µM",55.8%
same,"viability, T/C","second compound 0.03 µM, first compound 10 µM",0.19%
same,"viability, T/C","second compound 0.0949 µM, first compound 0.0316 µM",97.9%
same,"viability, T/C","second compound 0.0949 µM, first compound 0.1 µM",93.6%
same,"viability, T/C","second compound 0.0949 µM, first compound 0.316 µM",100%
same,"viability, T/C","second compound 0.0949 µM, first compound 1 µM",91%
same,"viability, T/C","second compound 0.0949 µM, first compound 3.16 µM",51.3%
same,"viability, T/C","second compound 0.0949 µM, first compound 10 µM",0.19%
same,"viability, T/C","second compound 0.3 µM, first compound 0.0316 µM",103%
same,"viability, T/C","second compound 0.3 µM, first compound 0.1 µM",98.5%
same,"viability, T/C","second compound 0.3 µM, first compound 0.316 µM",97.4%
same,"viability, T/C","second compound 0.3 µM, first compound 1 µM",87%
same,"viability, T/C","second compound 0.3 µM, first compound 3.16 µM",52.3%
same,"viability, T/C","second compound 0.3 µM, first compound 10 µM",0.17%
same,"viability, T/C","second compound 0.949 µM, first compound 0.0316 µM",100%
same,"viability, T/C","second compound 0.949 µM, first compound 0.1 µM",102%
same,"viability, T/C","second compound 0.949 µM, first compound 0.316 µM",85.5%
same,"viability, T/C","second compound 0.949 µM, first compound 1 µM",82.4%
same,"viability, T/C","second compound 0.949 µM, first compound 3.16 µM",44.9%
same,"viability, T/C","second compound 0.949 µM, first compound 10 µM",0.19%
same,"viability, T/C","second compound 3 µM, first compound 0.0316 µM",93.3%
same,"viability, T/C","second compound 3 µM, first compound 0.1 µM",89.9%
same,"viability, T/C","second compound 3 µM, first compound 0.316 µM",86.1%
same,"viability, T/C","second compound 3 µM, first compound 1 µM",79.1%
same,"viability, T/C","second compound 3 µM, first compound 3.16 µM",37.8%
same,"viability, T/C","second compound 3 µM, first compound 10 µM",0.4%
